Test systems include OVCAR-8 ovarian; PC-3 prostate; OVCAR-4 ovarian; LOX IMVI melanoma; UACC-62 melanoma; KM12 colon; NCI-H23 lung; NCI-H522 lung; SW-620 colon; NCI/ADR-RES ovarian; U251 CNS; MDA-MB-435; ACHN renal; MCF7 breast; MALME-3M melanoma; HOP-62 NSCLC; MOLT-4 leukemia; SR leukemia; SNB-19 CNS.
Common to all, as to test: growth of human tumour cells (NCI), 48 h

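Each compound was tested at five concentrations against cells in 96-well plates for 48 hours. TGI denotes the concentration required for complete inhibition of growth.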

With `COc1cc(C(=O)NC2CCc3cc(OC)c(OC)c(OC)c3-c3ccc(OC)c(=O)cc32)cc(OC)c1OC` (stereo not given), the TGI in the assay with OVCAR-8 ovarian is greater than 46.1 µM; in the assay with PC-3 prostate it was greater than 100 µM; with OVCAR-4 ovarian it was greater than 85.1 µM; in the assay on LOX IMVI melanoma, greater than 100 µM; with UACC-62 melanoma it was 45.9 µM; in the assay on KM12 colon, 0.801 µM. Further, the TGI is 12.8 µM with NCI-H23 lung; 0.0544 µM with NCI-H522 lung; greater than 100 µM in the assay on SW-620 colon; 70.3 µM in the assay on NCI/ADR-RES ovarian; 33.4 µM in the assay with U251 CNS; 0.0961 µM with MDA-MB-435. Moreover, the TGI with ACHN renal is greater than 100 µM; in the assay on MCF7 breast it was greater than 100 µM; with MALME-3M melanoma, 85.3 µM; with HOP-62 NSCLC, greater than 100 µM; in the assay on MOLT-4 leukemia it was 43.2 µM; in the assay on SR leukemia, greater than 100 µM. The compound also came in with a TGI with SNB-19 CNS greater than 100 µM.
For `Cc1ccc([N+](=O)[O-])cc1S(=O)(=O)Nc1ccc(C2=NN(S(=O)(=O)c3cc([N+](=O)[O-])ccc3C)C(c3ccccc3)C2)cc1` (stereo not given), the TGI was greater than 100 µM with OVCAR-8 ovarian; 98.8 µM with PC-3 prostate; greater than 100 µM in the assay on OVCAR-4 ovarian; greater than 100 µM in the assay with LOX IMVI melanoma; 44.7 µM with UACC-62 melanoma; greater than 100 µM with KM12 colon. Besides, the TGI is 60.5 µM in the assay with NCI-H23 lung; 50.6 µM in the assay with NCI-H522 lung; greater than 100 µM in the assay on SW-620 colon; 81.1 µM in the assay on NCI/ADR-RES ovarian; greater than 100 µM in the assay on U251 CNS; greater than 100 µM in the assay with MDA-MB-435. In addition, the TGI with ACHN renal is greater than 100 µM; in the assay on MCF7 breast it was greater than 100 µM; in the assay on MALME-3M melanoma, 62.8 µM; in the assay on HOP-62 NSCLC, greater than 100 µM; in the assay on MOLT-4 leukemia it was greater than 100 µM; in the assay on SR leukemia, greater than 100 µM. The TGI with SNB-19 CNS is greater than 100 µM.
As to `Cc1ccc(O)c(Cc2nc3ccccc3nc2-c2cccc(Cl)c2)c1`, the TGI is greater than 100 µM with OVCAR-8 ovarian; greater than 100 µM in the assay with PC-3 prostate; 65.8 µM in the assay with OVCAR-4 ovarian; greater than 100 µM with LOX IMVI melanoma; greater than 100 µM with UACC-62 melanoma; greater than 100 µM in the assay with KM12 colon. Further, the TGI in the assay with NCI-H23 lung was greater than 100 µM; in the assay with NCI-H522 lung it was 79 µM; in the assay with SW-620 colon it was greater than 100 µM; with NCI/ADR-RES ovarian it was greater than 100 µM; with U251 CNS it was greater than 100 µM; with MDA-MB-435, 54.9 µM. Moreover, the TGI with ACHN renal was greater than 100 µM; with MCF7 breast, greater than 100 µM; with MALME-3M melanoma, greater than 100 µM; with HOP-62 NSCLC, greater than 100 µM; in the assay on MOLT-4 leukemia it was 51.4 µM; with SR leukemia, greater than 100 µM. The TGI with SNB-19 CNS turned out to be 63.4 µM.
Consider `COc1cc2c(c(OC)c1OC)-c1ccc(OC)c(=O)cc1C(NC(=O)COc1ccccc1)CC2` (stereo not given), for which the TGI is 13.1 µM with OVCAR-8 ovarian; greater than 100 µM in the assay with PC-3 prostate; greater than 84 µM in the assay with OVCAR-4 ovarian; greater than 82.6 µM in the assay with LOX IMVI melanoma; greater than 100 µM with UACC-62 melanoma; less than 0.011 µM with KM12 colon. For the same compound, the TGI is less than 0.01 µM in the assay on NCI-H522 lung; greater than 95.2 µM in the assay on SW-620 colon; 0.4 µM in the assay on NCI/ADR-RES ovarian; 13 µM in the assay on U251 CNS; less than 0.01 µM with MDA-MB-435; greater than 100 µM in the assay with ACHN renal. For the same compound, the TGI with MCF7 breast is greater than 49.4 µM; in the assay with MALME-3M melanoma it was greater than 100 µM; with HOP-62 NSCLC, greater than 100 µM; in the assay on MOLT-4 leukemia it was 53 µM; in the assay on SR leukemia it was 8.93 µM; with SNB-19 CNS, greater than 100 µM.

These data come from PubChem BioAssay (NCI).
